Assays:
[1] = target: T1, calcium sensing receptor as found in the human parathyroid gland (Homo sapiens, UniProt P41180); assay: calcium mobilization fluorescence (FLIPR) assay, agonist mode; format: cell-based; settings: transfected HEK 293 cells; 1 mM calcium standard; Tables 2-7; read-out: In Vitro: CS50, where potency is at 50% of the calcium standard potency
T1 construct: expressed in transfected cells; host or cells: HEK 293
T1 sequence (P41180 20-1078): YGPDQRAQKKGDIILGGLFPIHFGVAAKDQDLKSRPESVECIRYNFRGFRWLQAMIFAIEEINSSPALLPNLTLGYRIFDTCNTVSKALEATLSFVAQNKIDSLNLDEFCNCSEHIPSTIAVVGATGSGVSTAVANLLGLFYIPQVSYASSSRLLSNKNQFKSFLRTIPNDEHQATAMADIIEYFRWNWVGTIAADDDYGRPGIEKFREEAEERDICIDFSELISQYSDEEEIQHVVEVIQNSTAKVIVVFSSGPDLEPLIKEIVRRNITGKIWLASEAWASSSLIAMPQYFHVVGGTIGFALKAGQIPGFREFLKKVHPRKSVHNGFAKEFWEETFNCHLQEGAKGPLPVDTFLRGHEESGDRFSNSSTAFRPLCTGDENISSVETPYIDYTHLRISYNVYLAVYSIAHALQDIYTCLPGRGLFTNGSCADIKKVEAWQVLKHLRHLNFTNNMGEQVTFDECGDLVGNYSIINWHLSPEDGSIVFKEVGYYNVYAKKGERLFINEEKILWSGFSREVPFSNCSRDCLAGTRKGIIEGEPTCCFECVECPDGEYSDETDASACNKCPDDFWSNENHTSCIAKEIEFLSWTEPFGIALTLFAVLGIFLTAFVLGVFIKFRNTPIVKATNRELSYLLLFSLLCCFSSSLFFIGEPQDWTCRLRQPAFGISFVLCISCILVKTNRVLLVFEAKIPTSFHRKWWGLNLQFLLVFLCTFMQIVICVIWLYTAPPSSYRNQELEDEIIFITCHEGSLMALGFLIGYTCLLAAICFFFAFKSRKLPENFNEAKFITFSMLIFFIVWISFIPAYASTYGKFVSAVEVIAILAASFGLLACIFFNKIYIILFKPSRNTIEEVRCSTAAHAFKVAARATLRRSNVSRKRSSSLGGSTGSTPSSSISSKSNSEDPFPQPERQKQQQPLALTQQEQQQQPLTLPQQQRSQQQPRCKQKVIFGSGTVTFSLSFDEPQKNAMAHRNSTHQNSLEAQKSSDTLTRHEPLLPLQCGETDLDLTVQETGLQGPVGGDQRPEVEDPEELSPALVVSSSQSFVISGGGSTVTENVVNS
Method: (§1) In vitro potency is measured via calcium mobilization in a fluorescence assay using HEK 293 cells transfected to express the same calcium sensing receptor as found in the human parathyroid gland. In this assay calcium-sensing receptor agonists and antagonists are detected. The assay is conducted in a 96-well plate format with the use of FLIPR (fluorescent imaging plate reader; Molecular Devices, Sunnyvale, Calif.). The HEK 293 cell media is replaced with the fluorescence dye FLUO-3AM and Pluronic detergent in FLIPR assay buffer. Cells are incubated 60 min (in the dark, at room temperature), then washed with assay buffer and placed in FLIPR. Images are collected by FLIPR in the absence of test compound, then in the presence of test compound (at 25 µM) and then after addition of a calcium challenge (at 1 mM). In the agonist assay the difference between maximum and minimum fluorescence values is measured following test compound addition. Hits have a change in fluorescence greater than or equal to 50% of that seen with a 1 mM calcium standard. In the antagonist assay the difference between maximum and minimum fluorescence values is measured following the calcium challenge addition. When compared to challenge in the absence of test compound, hits reduce fluorescence by at least 50%. In vivo activity is measured via parathyroid hormone (PTH) supression by test compounds in a rat model. Compound is administered orally using 0.5% Tween 80 in distilled water as vehicle, with a volume of approximately 10 mL/kg body weight. Blood samples are taken at 15 minutes (and 4 h if required) post oral dosing. Serum PTH levels are determined with an immunoradiometric assay.
(§2) Not all compounds were tested in each of the screens. […] Each entry represents a mixture of cis and trans cyclopropanes (R,S; S,R; R,R; S,S) with R absolute configuration when R^3=CH3. Table 2 lists compounds that are trans at the cyclopropane (R,R; S,S) with R absolute configuration at the benzylamine position, or without stereochemistry at the benzylamine. Table 3 lists compounds with R,R absolute stereochemistry at the cyclopropane and a mixture of stereochemistry at the benzylamine position. 20. In vitro data in Table 1 is percent activation of the calcium-sensing receptor versus baseline. In vitro data in Tables 2-7 is expressed as a CS50, where potency is at 50% of the calcium standard potency, and the unit is μM. In vivo data represents % blood serum PTH vs. vehicle at 30 mg/kg test compound, levels measured after 15 minutes.

[2] = tested on: parathyroid hormone (PTH); assay: parathyroid hormone (PTH) suppression in a rat model; format: in vivo; settings: 30 mg/kg test compound, levels measured after 15 minutes; for change in vivo at 30 mg/kg: Rattus norvegicus, po, 0.25 h, read-out: In Vivo: % blood serum PTH vs. vehicle; for In Vivo: % blood serum PTH vs. vehicle: oral, 30 mg/kg
Method: as §1, §2

Compound	EC50 [1] [µM]	change in vivo at 30 mg/kg [2] [%]	In Vivo: % blood serum PTH vs. vehicle [2]
COc1cccc([C@@H](C)NCC2CC2c2ccc(C)s2)c1 (stereo partly shown) [Compound 36]	–	-34.2	–
COc1cccc([C@@H](C)NCC2CC2c2ccc([N+](=O)[O-])cc2[N+](=O)[O-])c1 (stereo partly shown) [Compound 34]	> 25	–	–
COc1cccc([C@@H](C)NCC2CC2c2cccc(F)c2)c1 (stereo partly shown) [Compound 74]	–	–	-2.6%
COc1cccc([C@@H](C)NCC2CC2c2ccc(Cl)s2)c1 (stereo partly shown) [Compound 35]	–	-15.4	–
c1ccc([C@@H]2C[C@H]2CNCc2cccnc2)cc1 (relative stereo) [Compound 29]	> 25	87.8	–
c1ccc([C@@H]2C[C@H]2CNCc2ccccn2)cc1 (relative stereo) [Compound 28]	> 25	72	–
COc1cccc([C@@H](C)NCC2CC2c2ccccc2Cl)c1 (stereo partly shown) [Compound 4]	–	-11.9	–
COc1cccc([C@H](C)NCC2CC2c2cccc(F)c2)c1 (stereo partly shown) [Compound 78]	–	–	+21.4%
COc1cccc([C@H](C)NC[C@@H]2C[C@H]2c2cccc(F)c2)c1 [Compound 76]	–	16.8	–
COc1cccc([C@@H](C)NCC2CC2c2cc(C)ccc2C)c1 (stereo partly shown) [Compound 1]	–	–	+31.4%
COc1cccc([C@@H](C)NC[C@@H]2C[C@H]2c2cccc(F)c2)c1 [Compound 72]	–	–	-93.4%
CC(NC[C@@H]1C[C@H]1c1ccccc1)c1cccc(C(F)(F)F)c1 (stereo partly shown) [Compound 41]	> 25	-21.4	–
COc1cccc([C@@H](C)NCC2CC2c2cc(Br)cs2)c1 (stereo partly shown) [Compound 37]	–	-24.8	–
COc1cccc([C@H](C)NCC2CC2c2cccc(F)c2)c1 (stereo partly shown) [Compound 77]	–	–	+2.1%
COc1cccc([C@H](C)NC[C@H]2C[C@@H]2c2cccc(F)c2)c1 [Compound 75]	–	-0.9	–
COc1cccc([C@@H](C)NCC2CC2c2ccc(Cl)cc2)c1 (stereo partly shown) [Compound 6]	–	-9.3	–
CC(NC[C@@H]1C[C@H]1c1ccccc1)c1cccc(OC(F)(F)F)c1 (stereo partly shown) [Compound 39]	–	0	–
COc1cccc([C@@H](C)N(C[C@@H]2C[C@H]2c2ccccc2)C(=O)C(C)(C)C)c1 [Compound 55]	> 25	–	–
COc1cccc([C@@H](C)NCC2CC2c2cccc(F)c2)c1 (stereo partly shown) [Compound 73]	–	–	-52.5%
COc1cccc([C@@H](C)NC[C@H]2C[C@@H]2c2cccc(F)c2)c1 [Compound 71]	–	-78.7	–
COc1cccc([C@@H](C)NCC2CC2c2sccc2C)c1 (stereo partly shown) [Compound 38]	–	-51	–
COc1cccc([C@@H](C)NCC2CC2c2ccccc2)c1 (stereo partly shown) [Compound 3]	–	-62.1	–

Continued, in another order:

EC50 [1] [µM]	Compound	change in vivo at 30 mg/kg [2] [%]	In Vivo: % blood serum PTH vs. vehicle [2]
> 25	CC(NC[C@@H]1C[C@H]1c1ccccc1)c1cccc(Cl)c1 (stereo partly drawn) [Compound 46, N-((R,R)-2-phenylcyclopropanylmethyl)-1-(3-chlorophenyl)ethylamine]	-15.9	–
37.1	COc1cccc([C@@H](C)NCC2CC2c2cccnc2)c1 (stereo partly shown) [Compound 10]	–	–
7.8	COc1cccc([C@@H](C)NCC2CC2c2cccn2C)c1 (stereo partly shown) [Compound 27]	–	–
> 25	COc1cccc([C@H](C)NC[C@@H]2C[C@H]2c2ccccc2)c1 [Compound 63]	-40.1	–
11.9	COc1cccc([C@@H](C)NCC2CC2c2c(F)cccc2F)c1 (stereo partly shown) [Compound 24]	-85.4	–
7.1	COc1cccc([C@@H](C)NCC2CC2c2cccs2)c1 (stereo partly shown) [Compound 25]	-89	–
12.9	COc1cccc([C@@H](C)NC[C@H]2C[C@@H]2c2ccccc2)c1 [Compound 60]	-42.1	–
13.5	COc1cccc([C@@H](C)NCC2CC2c2cccc(C(F)(F)F)c2)c1 (stereo partly shown) [Compound 15]	4.2	–
> 25	COc1cccc([C@H](C)NC[C@H]2C[C@@H]2c2ccccc2)c1 [Compound 64]	-11.7	–
5	COc1cccc([C@@H](C)NCC2CC2c2ccccc2F)c1 (stereo partly shown) [Compound 17]	-94.8	–
> 25	Cc1cccc(C(C)NC[C@@H]2C[C@H]2c2ccccc2)c1 (stereo partly shown) [Compound 40]	-51.2	–
5	COc1cccc([C@@H](C)NC[C@@H]2C[C@H]2c2ccccc2)c1 [Compound 49, N-((R,R)-2-phenylcyclopropanylmethyl)-1-(R)-(3-methoxyphenyl)ethylamine]	-83.6	–
> 25	COc1cccc([C@@H](C)NCC2CC2c2ccc(C(F)(F)F)cc2)c1 (stereo partly shown) [Compound 16]	-14.4	–
21	COc1cccc([C@@H](C)NC[C@@H]2C[C@@H]2c2cc(C)ccc2C)c1 [Compound 70]	-24.7	–
6.5	COc1cccc([C@@H](C)NCC2CC2c2ccccn2)c1 (stereo partly shown) [Compound 9]	–	–
11.9	CCOc1cccc([C@@H](C)NC[C@@H]2C[C@H]2c2ccccc2)c1 [Compound 50, N-((R,R)-2-phenylcyclopropanylmethyl)-1-(R)-(3-ethoxyphenyl)ethylamine]	-57	–
9.5	COc1cccc([C@@H](C)NCC2CC2c2cccc(C)c2)c1 (stereo partly shown) [Compound 13]	-98.2	–
> 25	COc1cccc([C@@H](C)NCC2CC2(C)c2ccccc2)c1 (stereo partly shown) [Compound 68]	-94.5	–
11.3	COc1cccc([C@@H](C)NCC2CC2c2ccccc2F)c1 (single isomer, unassigned) [Compound 18]	–	-83.9%
> 25	COc1cccc([C@@H](C)NCC2CC2c2cc(C)ccc2C)c1 (stereo partly shown) [Compound 33]	–	-47.6%
> 25	CC(C)Oc1cccc([C@@H](C)NC[C@@H]2C[C@H]2c2ccccc2)c1 [Compound 51]	-7.3	–
12.2	C[C@@H](NC[C@@H]1C[C@H]1c1ccccc1)c1cccc(OC2CCCC2)c1 [Compound 52]	26.6	–
3.4	COc1cccc([C@@H](C)NCC2CC2c2ccsc2)c1 (stereo partly shown) [Compound 26]	–	–
8.8	COc1cccc([C@@H](C)NCC2CC2c2ccccc2C)c1 (stereo partly shown) [Compound 12]	-95.8	–
12.4	COc1cccc([C@@H](C)NCC2CC2c2cc(C)ccc2C)c1 (stereo partly shown) [Compound 32]	–	-13.5%
10.9	COc1cccc([C@@H](C)NC[C@H]2C[C@@H]2c2cccc(F)c2)c1 [Compound 21]	–	–
> 25	COc1cccc([C@@H](C)NCC2CC2c2ccncc2)c1 (stereo partly shown) [Compound 11]	–	–
